These results are taken from patent US20240408169A1 (priority 2023, published 2024).

The test system of one experiment is OVCAR3 cells. Description: MTT proliferation assay, OVCAR3.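 Also: compound given as an 8- or 10-point series, one day after plating, with exposure covering roughly 3-4 cell doublings.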 It is filed as cell-based. The settings on record: 5 days compound exposure, 1:3 serial dilution starting at 10 μM.
Another experiment has as its target T1, CyclinA2/CDK2 (Homo sapiens, UniProt P20248).
T1 construct: purchased CRELUX Protein Services
The experiment can be described thus: Fluorescence Polarization (FP) competitive binding assay, Cyclin A2/Cdk2.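 Also: plates equilibrated two hours at room temperature before polarization reading, IC50 fitted from eight-concentration compound titration curves.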 The following applies: 8 nM Cyclin A2/Cdk2, 2 nM FAM probe; average of 2-3 independent experiments; read-out: Cyclin A FP IC50.

A further experiment addresses T2, CyclinE1/CDK2 (Homo sapiens, UniProt P24864).
T2 construct: purchased Eurofins, discovery 14-475
Description: Fluorescence Polarization (FP) competitive binding assay, Cyclin E1/Cdk2.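 Also: readings taken after two-hour equilibration at room temperature in HEPES buffer with NaCl, DTT, NP-40 and BSA, IC50 fitted from eight-concentration serial dilution series.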 The settings on record: 10 nM Cyclin E1/Cdk2, 2 nM FAM probe; average of 2-3 independent experiments; read-out: Cyclin E FP IC50.

Another experiment deals with NCI-H1048 cells. The experiment can be described thus: MTT proliferation assay, NCI-H1048.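 Also: Dose-response in 96-well plates over 8 or 10 concentration points, with exposure spanning 3-4 cell doublings.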 The following applies: 5 days compound exposure, 1:3 serial dilution starting at 10 μM. It is filed as cell-based.
In another experiment the target is T3, CyclinB1/CDK1 (Homo sapiens, UniProt P14635).
T3 construct: purchased Eurofins, discovery 14-450
Description: Fluorescence Polarization (FP) competitive binding assay, Cyclin B1/Cdk1.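 Also: fluorescence polarization read after equilibration at room temperature, with IC50 taken from serially diluted dose-response curves.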 The following applies: 10 nM Cyclin B1/Cdk1, 2 nM FAM probe; average of 2-3 independent experiments; read-out: Cyclin B FP IC50.

As for `CC(C)C[C@@H]1NC(=O)[C@@H](NC(=O)[C@@H](NC(=O)[C@@H]2C[C@@H](F)CN2C(=O)C2(C(F)(F)F)CC(F)(F)C2)C2CC2)CC=CCCCCN(C)C(=O)[C@H](Cc2cc(Cl)ccc2Cl)N(C)C1=O` [Example 12], the concentration for 50% growth inhibition (GI50) in the experiment with OVCAR3 cells came to 40 nM; with NCI-H1048 cells, 30 nM. Further, the results for the 50% inhibitory concentration (IC50) at CyclinA2/CDK2, at CyclinE1/CDK2 and at CyclinB1/CDK1 were 60 nM, 100 nM and 20 nM, respectively.
With `CC[C@H](NC(=O)[C@@H]1C[C@@H](F)CN1C(=O)C1(C(F)(F)F)CC1)C(=O)N[C@H]1CC=CCCCCN(C)C(=O)[C@H](Cc2cc(Cl)ccc2Cl)N(C)C(=O)[C@H](CC(C)C)NC1=O` [Example 13], the GI50 in the experiment with OVCAR3 cells was 240 nM; in the experiment with NCI-H1048 cells it was 70 nM. The IC50 was determined as 100 nM at CyclinA2/CDK2, 100 nM at CyclinE1/CDK2 and 20 nM on CyclinB1/CDK1.
With `CC(C)C[C@@H]1NC(=O)[C@@H](N(C)C(=O)[C@@H](NC(=O)[C@@H]2C[C@@H](F)CN2C(=O)C2(C(F)(F)F)CC(F)(F)C2)C2CC2)CC=CCCCCNC(=O)[C@H](Cc2cc(Cl)ccc2C2=CCN(S(C)(=O)=O)CC2)N(C)C1=O` [Example 23], the GI50 with OVCAR3 cells is 210 nM; in the experiment on NCI-H1048 cells it was 180 nM. Besides, the IC50 at CyclinA2/CDK2 is 120 nM; at CyclinE1/CDK2, 5470 nM; at CyclinB1/CDK1 it was 20 nM.
The like results for `CC(C)C[C@@H]1NC(=O)[C@@H](N(C)C(=O)[C@@H](NC(=O)[C@@H]2C[C@@H](F)CN2C(=O)C2(C(F)(F)F)CC(F)(F)C2)C2CC2)CC=CCCCCNC(=O)[C@H](Cc2cc(Cl)ccc2C2=CC[C@H](O)CC2)N(C)C1=O` [Example 24] were, in that order, 170 nM, 90 nM, 60 nM, 1600 nM and 20 nM.
As for `CC(C)C[C@@H]1NC(=O)[C@@H](N(C)C(=O)[C@@H](NC(=O)[C@@H]2C[C@@H](F)CN2C(=O)C2(C(F)(F)F)CC(F)(F)C2)C2CC2)CC=CCCCCNC(=O)[C@H](Cc2cc(Cl)ccc2-c2cnn(CCO)c2)N(C)C1=O` [Example 28], the values for the concentration for 50% growth inhibition (GI50) in the experiment on OVCAR3 cells and in the experiment on NCI-H1048 cells were 170 nM and 80 nM, respectively. Further, the half-maximal inhibitory concentration (IC50) at CyclinA2/CDK2 was determined as 40 nM; on CyclinE1/CDK2 it was 740 nM; on CyclinB1/CDK1, 20 nM.
The like results for `CC(C)C[C@@H]1NC(=O)[C@@H](N(C)C(=O)[C@@H](NC(=O)[C@@H]2C[C@@H](F)CN2C(=O)C2(C(F)(F)F)CC(F)(F)C2)C2CC2)CC=CCCCCN(C)C(=O)[C@H](Cc2cc(Cl)ccc2-c2cnn(C)c2)N(C)C1=O` [Example 29] were, in that order, 70 nM, 40 nM, 30 nM, 690 nM and 20 nM.
Regarding `CC(C)C[C@@H]1NC(=O)[C@@H](N(C)C(=O)[C@@H](NC(=O)[C@@H]2C[C@@H](F)CN2C(=O)C2(C(F)(F)F)CC(F)(F)C2)C2CC2)CC=CCCCCN(C)C(=O)[C@H](Cc2cc(Cl)ccc2-c2cncnc2)N(C)C1=O` [Example 30], the GI50 with OVCAR3 cells came out at 140 nM; in the experiment with NCI-H1048 cells, 130 nM. In addition, the IC50 was found to be 240 nM at CyclinA2/CDK2, 5050 nM at CyclinE1/CDK2 and 20 nM on CyclinB1/CDK1.
For `CC(=O)N1CC=C(c2ccc(Cl)cc2C[C@H]2C(=O)N(C)CCCCC=CC[C@H](N(C)C(=O)[C@@H](NC(=O)[C@@H]3C[C@@H](F)CN3C(=O)C3(C(F)(F)F)CC(F)(F)C3)C3CC3)C(=O)N[C@@H](CC(C)C)C(=O)N2C)CC1` [Example 31], the GI50 worked out at 150 nM in the experiment on OVCAR3 cells and 80 nM with NCI-H1048 cells. For the same compound, the IC50 came out at 30 nM at CyclinA2/CDK2, 2200 nM at CyclinE1/CDK2 and 20 nM at CyclinB1/CDK1.
The like results for `CC(C)C[C@@H]1NC(=O)[C@@H](N(C)C(=O)[C@@H](NC(=O)[C@@H]2C[C@@H](F)CN2C(=O)C2(C(F)(F)F)CC(F)(F)C2)C2CC2)CC=CCCCCN(C)C(=O)[C@H](Cc2cc(F)ccc2-c2cnn(C)c2)N(C)C1=O` [Example 37] were, in that order, 50 nM, 40 nM, 50 nM, 370 nM and 20 nM.
